Counter-ions that a name gives are not always drawn.
Assay: Excretion and recovery of radioactivity after single oral administration, target dose 1 mg free base/kg
Type: in vivo, male Sprague Dawley rats
Design: Excretion of Radioactivity, Urine / Excretion of Radioactivity, Cage Wash: unit not given beside the values
Settings: for Recovery of Radioactivity, Carcass / Recovery of Radioactivity, GI Tract: at 168 hours
Source text: [^14C] N,N,-diethyl-8,8-dipropyl-2-azaspiro[4,5]decane-2-propanamine dimaleate salt, (“Compound II”) with a specific activity of 91 uCi/mg and chemical purity >99%, and non-radiolabeled dimaleate salt of N,N,-diethyl-8,8-dipropyl-2-azaspiro[4,5]decane-2-propanamine dimaleate (Compound 1) chemical purity >98%, respectively, were used in this study. The site of the radiocarbon label in Compound II is depicted by an asterisk in Formula II. The non-radiolabeled material was used for reference purposes. The radiolabeled material was stored at ca −80° C. in the dark and the non-radiolabeled material at ca −20° C. in the dark.
Three healthy male Sprague Dawley rats (Crl:CD(SD)BR), age ca 8-9 weeks, body weights at dosing 237-255 g, were supplied by Charles River (UK) Limited. The animals were housed in holding cages suitable for this species for 8 days prior to use. SDS Rat and Mouse Maintenance Diet No. 1, (Special Diets Services, Witham Essex), and mains quality water were available ad libitum throughout. The diet and water supplied to the animals were routinely analyzed for quality and no problems were detected. Holding and study areas had automatic control of light cycle and temperature. The actual range of temperature measured during the study was 17-25° C. with relative humidity measured at 60%.
The dose was prepared for oral administration on the day of dosing. […]
For each rat, an aliquot of the dose solution was administered orally by gavage. […] For each dose, the combined weight of dose and dosing equipment were recorded prior to dosing and the discharged dosing equipment was weighed after dosing. The concentration of radioactive material in each dose solution was also determined.
Immediately following dosing, the rats were placed into all glass metabolism cages suitable for the quantitative collection of excreta and expired air. All samples were collected into individual, uniquely labeled containers.
[…] The collection containers were cooled by solid CO2 during the first 48 hours after dosing.
[…] Collection containers were cooled by solid CO2 during the first 48 hours.
At the time of each feces collection, each cage was washed with water (ca 750 mL) and the washings were retained for radioassay. During the periods 0-24 h and 24-48 hours after dosing, expired air was passed through 2 serial traps containing ethanolamine:ethoxyethaonol (3:7, v/v) in order to effect the removal of CO2. The trap solvent was sampled for radioassay at the end of each collection period.
At 168 hours post dose, each animal was killed by CO2 narcosis and cervical dislocation. Gastrointestinal tracts were removed and retained separately from the carcasses in preparation for radioassay.
Duplicate aliquots of urine (ca 0.3 mL) and cage washings (ca 1 mL) were dispensed, diluted to 1 mL with distilled water (if considered necessary) and mixed with Quickzint 1 scintillation fluid (10 mL; Zinsser Analytic Maidenhead, UK).
Feces were homogenised in 1 to 2 volumes of water with the sample and homogenate weight recorded. Duplicate aliquots (ca 0.3 ) were taken from each sample and dispensed onto combustopads contained in combustocones (Canberra Packard Limited, Pangbourne, UK). When dry, these samples were combusted using a Packard Tri-Carb 306 Automatic Sample Oxidiser. The resultant ^14CO2 generated was collected by absorption in Carbo-Sorb® (8 mL; Canberra Packard Limited) to which Permafluor®E^+ scintillation fluid (10 mL; Canberra Packard Limited) was added.
For each rat, the carcass and gastro-intestinal tract with contents were solubilised in Soluene 350 (Canberra Packard). When dissolved, portions of the digest (ca 0.1 mL) were taken for liquid scintillation spectrometry. The volume was made up to 1 mL by the addition of methanol then 10 mL Quickzint was added and the samples counted as for the other liquid samples. […]

[1] = 168 hour collection period, #3 male

CCCC1(CCC)CCC2(CCN(CCCN(CC)CC)C2)CC1 [Compound II, [^14C] N,N,-diethyl-8,8-dipropyl-2-azaspiro[4,5]decane-2-propanamine dimaleate salt]
Excretion of Radioactivity, Urine (0-6 hours, #1 male): 0.1
Excretion of Radioactivity, Urine (0-6 hours, #2 male): 0.1
Excretion of Radioactivity, Urine (0-6 hours, #3 male): 0.1
Excretion of Radioactivity, Cage Wash (0-24 hours, #1 male): 0.1
Excretion of Radioactivity, Feces (0-24 hours, #1 male): 18.2
Excretion of Radioactivity, Cage Wash (0-24 hours, #2 male): 0.1
Excretion of Radioactivity, Feces (0-24 hours, #2 male): 14.7
Excretion of Radioactivity, Cage Wash (0-24 hours, #3 male): *<0.1
Excretion of Radioactivity, Feces (0-24 hours, #3 male): 17.7
Excretion of Radioactivity, Cage Wash (0-24 hours, Mean): ^+0.1
Excretion of Radioactivity, Feces (0-24 hours, Mean): 16.9
Dose recovered in expired air (0-48 hours): Less than 0.2 % of the dose
Excretion of Radioactivity, Cage Wash (0-168 hours, #1 male): 0.7
Excretion of Radioactivity, Feces (0-168 hours, #1 male): 64.0
Excretion of Radioactivity, Urine (0-168 hours, #1 male): 6.9
Excretion of Radioactivity, Cage Wash (0-168 hours, #2 male): 1.0
Excretion of Radioactivity, Feces (0-168 hours, #2 male): 65.7
Excretion of Radioactivity, Urine (0-168 hours, #2 male): 8.9
Excretion of Radioactivity, Cage Wash (0-168 hours, #3 male): 1.3
Excretion of Radioactivity, Feces (0-168 hours, #3 male): 66.7
Excretion of Radioactivity, Urine (0-168 hours, #3 male): 9.8
Excretion of Radioactivity, Cage Wash (0-168 hours, Mean): 1.0
Excretion of Radioactivity, Feces (0-168 hours, Mean): 65.5
Excretion of Radioactivity, Urine (0-168 hours, Mean): 8.5
Excretion of Radioactivity, Urine (6-24 hours, #1 male): 0.4
Excretion of Radioactivity, Urine (6-24 hours, #2 male): 0.5
Excretion of Radioactivity, Urine (6-24 hours, #3 male): 0.5
Excretion of Radioactivity, Urine (6-24 hours, Mean): 0.5
Excretion of Radioactivity, Cage Wash (24-48 hours, #1 male): 0.1
Excretion of Radioactivity, Feces (24-48 hours, #1 male): 16.3
Excretion of Radioactivity, Urine (24-48 hours, #1 male): 1.0
Excretion of Radioactivity, Cage Wash (24-48 hours, #2 male): <0.1
Excretion of Radioactivity, Feces (24-48 hours, #2 male): 17.2
Excretion of Radioactivity, Urine (24-48 hours, #2 male): 1.4
Excretion of Radioactivity, Cage Wash (24-48 hours, #3 male): 0.1
Excretion of Radioactivity, Feces (24-48 hours, #3 male): 14.5
Excretion of Radioactivity, Urine (24-48 hours, #3 male): 1.4
Excretion of Radioactivity, Cage Wash (24-48 hours, Mean): 0.1
Excretion of Radioactivity, Feces (24-48 hours, Mean): 16.0
Excretion of Radioactivity, Urine (24-48 hours, Mean): 1.3
Excretion of Radioactivity, Cage Wash (48-72 hours, #1 male): <0.1
Excretion of Radioactivity, Feces (48-72 hours, #1 male): 10.0
Excretion of Radioactivity, Urine (48-72 hours, #1 male): 1.2
Excretion of Radioactivity, Cage Wash (48-72 hours, #2 male): 0.2
Excretion of Radioactivity, Feces (48-72 hours, #2 male): 15.2
Excretion of Radioactivity, Urine (48-72 hours, #2 male): 1.5
Excretion of Radioactivity, Cage Wash (48-72 hours, #3 male): 0.2
Excretion of Radioactivity, Feces (48-72 hours, #3 male): 12.7
Excretion of Radioactivity, Urine (48-72 hours, #3 male): 1.7
Excretion of Radioactivity, Cage Wash (48-72 hours, Mean): 0.1
Excretion of Radioactivity, Feces (48-72 hours, Mean): 12.6
Excretion of Radioactivity, Urine (48-72 hours, Mean): 1.5
Excretion of Radioactivity, Cage Wash (72-96 hours, #1 male): 0.1
Excretion of Radioactivity, Feces (72-96 hours, #1 male): 7.5
Excretion of Radioactivity, Urine (72-96 hours, #1 male): 1.3
Excretion of Radioactivity, Cage Wash (72-96 hours, #2 male): 0.2
Excretion of Radioactivity, Feces (72-96 hours, #2 male): 7.8
Excretion of Radioactivity, Urine (72-96 hours, #2 male): 1.6
Excretion of Radioactivity, Cage Wash (72-96 hours, #3 male): 0.3
Excretion of Radioactivity, Feces (72-96 hours, #3 male): 8.0
Excretion of Radioactivity, Urine (72-96 hours, #3 male): 2.0
Excretion of Radioactivity, Cage Wash (72-96 hours, Mean): 0.2
Excretion of Radioactivity, Feces (72-96 hours, Mean): 7.8
Excretion of Radioactivity, Urine (72-96 hours, Mean): 1.6
Excretion of Radioactivity, Cage Wash (96-120 hours, #1 male): 0.1
Excretion of Radioactivity, Feces (96-120 hours, #1 male): 5.5
Excretion of Radioactivity, Urine (96-120 hours, #1 male): 1.2
Excretion of Radioactivity, Cage Wash (96-120 hours, #2 male): 0.2
Excretion of Radioactivity, Feces (96-120 hours, #2 male): 4.1
Excretion of Radioactivity, Urine (96-120 hours, #2 male): 1.5
Excretion of Radioactivity, Cage Wash (96-120 hours, #3 male): 0.2
Excretion of Radioactivity, Feces (96-120 hours, #3 male): 6.4
Excretion of Radioactivity, Urine (96-120 hours, #3 male): 1.6
Excretion of Radioactivity, Cage Wash (96-120 hours, Mean): 0.2
Excretion of Radioactivity, Feces (96-120 hours, Mean): 5.3
Excretion of Radioactivity, Urine (96-120 hours, Mean): 1.4
Excretion of Radioactivity, Cage Wash (120-144 hours, #1 male): 0.1
Excretion of Radioactivity, Feces (120-144 hours, #1 male): 3.5
Excretion of Radioactivity, Urine (120-144 hours, #1 male): 0.9
Excretion of Radioactivity, Cage Wash (120-144 hours, #2 male): 0.1
Excretion of Radioactivity, Feces (120-144 hours, #2 male): 3.5
Excretion of Radioactivity, Urine (120-144 hours, #2 male): 1.3
Excretion of Radioactivity, Cage Wash (120-144 hours, #3 male): 0.3
Excretion of Radioactivity, Feces (120-144 hours, #3 male): 4.3
Excretion of Radioactivity, Urine (120-144 hours, #3 male): 1.3
Excretion of Radioactivity, Cage Wash (120-144 hours, Mean): 0.2
Excretion of Radioactivity, Feces (120-144 hours, Mean): 3.8
Excretion of Radioactivity, Urine (120-144 hours, Mean): 1.2
Excretion of Radioactivity, Urine (144-162 hours, #1 male): 0.8
Excretion of Radioactivity, Urine (144-162 hours, #2 male): 1.0
Excretion of Radioactivity, Urine (144-162 hours, #3 male): 1.2
Excretion of Radioactivity, Urine (144-162 hours, Mean): 1.0
Excretion of Radioactivity, Cage Wash (144-168 hours, #1 male): 0.2
Excretion of Radioactivity, Feces (144-168 hours, #1 male): 3.0
Excretion of Radioactivity, Cage Wash (144-168 hours, #2 male): 0.2
Excretion of Radioactivity, Feces (144-168 hours, #2 male): 3.2
Excretion of Radioactivity, Cage Wash (144-168 hours, #3 male): 0.2
Excretion of Radioactivity, Feces (144-168 hours, #3 male): 3.1
Excretion of Radioactivity, Cage Wash (144-168 hours, Mean): 0.2
Excretion of Radioactivity, Feces (144-168 hours, Mean): 3.1
Recovery of Radioactivity, Total (168 hour collection period, #1 male): 96.7 % administered dose
Recovery of Radioactivity, Total (168 hour collection period, #2 male): 103.0 % administered dose
Recovery of Radioactivity, Cage Washings [1]: *1.3 % administered dose
Recovery of Radioactivity, Total [1]: 103.2 % administered dose
Recovery of Radioactivity, Total (168 hour collection period, Mean): 101.0 % administered dose
Recovery of Radioactivity, Expired air 1 (#1 male): *<0.1 % administered dose
Recovery of Radioactivity, Expired air 2 (#1 male): *<0.1 % administered dose
Recovery of Radioactivity, Expired air 1 (#2 male): *<0.1 % administered dose
Recovery of Radioactivity, Expired air 2 (#2 male): *<0.1 % administered dose
Recovery of Radioactivity, Expired air 1 (#3 male): *<0.1 % administered dose
Recovery of Radioactivity, Expired air 2 (#3 male): *<0.1 % administered dose
Recovery of Radioactivity, Expired air 1 (Mean): ^+<0.1 % administered dose
Recovery of Radioactivity, Expired air 2 (Mean): ^+<0.1 % administered dose
Recovery of Radioactivity, Carcass (#1 male): 11.3 % administered dose
Recovery of Radioactivity, GI Tract (#1 male): 13.8 % administered dose
Recovery of Radioactivity, Carcass (#2 male): 14.1 % administered dose
Recovery of Radioactivity, GI Tract (#2 male): 13.3 % administered dose
Recovery of Radioactivity, Carcass (#3 male): 14.9 % administered dose
Recovery of Radioactivity, GI Tract (#3 male): 10.5 % administered dose
Recovery of Radioactivity, Carcass (Mean): ~13.5 % administered dose
Recovery of Radioactivity, GI Tract (Mean): ~12.5 % administered dose
Dose recovered in excreta and cage washings (mean, full 168 hour collection period): 75.0%
Administered radioactive dose recovered (total) (range over three rats, 168 hours): 96.7-103.2%
Dose recovered in the excreta (up to 120 hours after dosing): ~66 % of the dose

— patent publication US20070015780A1, “Method of treating cancer with azaspirane compositions” (priority 2003, published 2007)
